From publication PMC6973020, “Quinoline‐Conjugated Ruthenacarboranes: Toward Hybrid Drugs with a Dual Mode of Action” (Chemmedchem, 2019)
“And” between values parts separate entries of the source, which are not always exact repeats. Equal values may be shown once.

Columns and labels:
MCF‐7 cells = assay: Wound healing assay, MCF‐7; assay type: cell-based, human; details: MCF‐7, 20 μM, 72 h
[1] = Solubility in organic solvents (qualitative); assay type: physicochemical
[2] = tested on: primary non‐malignant mouse macrophages (Mph); assay: Crystal violet (CV) cell viability assay, peritoneal macrophages (Mph); assay type: cell-based; details: 72 h
From the text: (§1) Thus, care must be taken when comparing their biological activities with those of our previous studies, even with the same cell line, because the covalent vs. non‐covalent combination of drugs might imply different mechanisms of action in the cell.44 Here, we studied the in vitro activity of ruthenacarborane 3, i. e. free acid, and its 8‐hydroxyquinolyl (4) and 4‐{(7‐chloroquinolin‐4‐yl)oxy}butanol‐1‐yl (5) esters, against a panel of cancer cell lines (B16 mouse melanoma, A375 human skin melanoma, MCF‐7 human breast adenocarcinoma, LN229 human glioblastoma, U251 human glioma). Human fibroblast cell line MRC‐5, murine microglial cell line BV‐2 as well as peritoneal exudate cells (Mph), were chosen as models for non‐malignant cells. […] On the other side, we wanted to assess the reproducibility of the viability data, under either controlled (with BSA) or uncontrolled (without BSA) conditions, in two sets of independent assays. […] Cells were exposed to 3–5 for 72 h, after which cell viability was determined via 3‐(4,5‐dimethylthiazol‐2‐yl)‐2,5‐diphenyltetrazolium bromide (MTT) and crystal violet (CV) assays, in parallel (Table 2). Cisplatin was also tested as reference.
(§2) Preparation of drug solutions. […] Stock solution of cisplatin was prepared in DMF (10 mM) immediately before use. A stock solution of BSA in PBS was prepared at 1.28 mM concentration, and stored at 4 °C in the dark. […] Alternatively, 3 or 4 (DMSO stock solution) were added to the BSA solution in PBS, always with a 10 : 1 molar ratio of BSA to ruthenacarborane. […]
(§3) Colorimetric assays for cellular viability. […] The absorbance was measured with an automated microplate reader at λmax 540 nm, with the reference λmax 670 nm. Untreated cells or cells treated only with BSA (control) were also measured, as reference for BSA‐free and BSA‐containing drug formulations, respectively. […] Cell viability is expressed as percentage (%) relative to control (untreated cultures).58 Experiments were run in three independent replicates. […]

A375 human skin melanoma = assay: MTT cell viability assay, A375; assay type: cell-based; details: 72 h
From the text: as §1
(§4) Preparation of drug solutions. […] Stock solution of cisplatin was prepared in DMF (10 mM) immediately before use. A stock solution of BSA in PBS was prepared at 1.28 mM concentration, and stored at 4 °C in the dark. […] Alternatively, 3 or 4 (DMSO stock solution) were added to the BSA solution in PBS, always with a 10 : 1 molar ratio of BSA to ruthenacarborane. The BSA−ruthenacarborane solutions were incubated 0.5–1 h at room temperature, then diluted with cell culture medium to the desired final concentrations. Final concentrations of 3 and 4 were the same as for the BSA‐free formulation. Final DMSO was 0.02–0.5 vol %.
(§5) Colorimetric assays for cellular viability. […] For counting the number of attached (viable) cells, cells were fixed with 4 % (w/v) paraformaldehyde for 10 min at room temperature, and subsequently stained for 15 min with […] crystal violet (CV) solution. Cells were then washed with tap water, dried in air, and the CV dye was dissolved in 33 % (w/v) acetic acid solution. For the detection of mitochondrial respiration, cells were cultivated in MTT staining solution (0.5 mg mL^−1) for approximately 1 h. The dye was then discarded, and the formed formazan (purple) was dissolved in DMSO. The absorbance was measured with an automated microplate reader at λmax 540 nm, with the reference λmax 670 nm. Untreated cells or cells treated only with BSA (control) were also measured, as reference for BSA‐free and BSA‐containing drug formulations, respectively. […] Cell viability is expressed as percentage (%) relative to control (untreated cultures).58 Experiments were run in three independent replicates. […]

[3] = tested on: MCF‐7 human breast adenocarcinoma; assay: MTT cell viability assay, MCF‐7; assay type: cell-based; details: 72 h
From the text: as §1, §4, §5

[4] = tested on: murine microglial cell line BV‐2; assay: MTT cell viability assay, BV‐2; assay type: cell-based, mouse; details: 72 h
From the text: as §1, §2, §3

[5] = tested on: Human fibroblast cell line MRC‐5; assay: MTT cell viability assay, MRC‐5; assay type: cell-based; details: 72 h
From the text: as §1, §2, §3

B16 mouse melanoma = assay: Crystal violet (CV) cell viability assay, B16; assay type: cell-based; details: 72 h
From the text: as §1, §4, §5

[6] = tested on: murine microglial cell line BV‐2; assay: Crystal violet (CV) cell viability assay, BV‐2; assay type: cell-based, mouse; details: 72 h
From the text: as §1, §2, §3

U251 human glioma = assay: MTT cell viability assay, U251; assay type: cell-based; details: 72 h
From the text: as §1, §4, §5

[7] = tested on: MCF‐7 human breast adenocarcinoma; assay: Crystal violet (CV) cell viability assay, MCF‐7; assay type: cell-based; details: 72 h
From the text: as §1, §4, §5

[8] = Nanoparticle Tracking Analysis (NTA) in PBS/DMSO, with and without BSA; assay type: physicochemical; details: PBS, without BSA, 20 μM, 25 °C
Method: Nanoparticle Tracking Analysis (NTA). 3 and 4 were analyzed via NTA to study the modulation of self‐assembly behavior in PBS/DMSO mixture (pH 7.4), with and without BSA, in an analogous way as described previously.9 Samples of 3 and 4 in PBS/DMSO were prepared as described above for UV‐vis measurements. The solutions were measured 30 min after preparation. Samples of BSA−3 and BSA−4 were prepared with two different BSA:ruthenacarborane ratios, namely 10 : 1 and 1 : 1. Stock solutions of BSA in PBS ([BSA]PBS=1.128 mM) were diluted to final concentrations of 200 or 20 μM with PBS (Vfin=5 mL), then an aliquot of the stock solution of 3 or 4 was added, so that the final concentration of metallacarborane was 20 μM. Content of DMSO was adjusted to 1 vol % (considering the amount of DMSO from the stock solutions) before addition of the ruthenacarborane, in all samples. The solutions of BSA−ruthenacarborane were measured 3.5–6 h after preparation. BSA alone in PBS/DMSO was also measured, as blank, using the same capture and processing parameters as for the respective BSA−metallacarborane samples, for direct comparison. All NTA measurements were performed at 25±0.1 °C. Each sample was measured in five independent captures. The time of each capture was set to 60 s.

closo ‐[3‐(η^6‐p‐Cymene)‐1‐(quinolin‐8‐yl‐acetate)‐3,1,2‐RuC2B9H10] [Compound 4]
cell migration (wound healing assay, in words) (MCF‐7 cells): inhibited cell migration | solubility in organic solvents (in words) [1]: soluble in dichloromethane, chloroform, acetone and DMSO | IC50 [2]: 94 ± 7.7 µM | IC50 (A375 human skin melanoma): 11.9 ± 1.2 µM | IC50 [3]: 15.9 ± 0.2 µM | IC50 [4]: 8.7 ± 0.1 µM | IC50 [5]: 3.9 ± 0.1 µM | IC50 (B16 mouse melanoma): 24.5 ± 2.1 µM | IC50 [6]: 9.2 ± 0.1 µM | IC50 (U251 human glioma): 46.2 ± 1.9 µM | IC50 [7]: 16.9 ± 1.1 µM | concentration of self‐assemblies [8]: 10^6–10^7 particles mL^−1

closo‐ [Compound 3, closo‐ [3‐(η^6‐p‐Cymene)‐1‐(CH2COOH)‐3,1,2‐RuC2B9H10]]
cell migration (wound healing assay, in words) (MCF‐7 cells): inhibited cell migration | solubility in organic solvents (in words) [1]: soluble in acetone, THF, acetonitrile and DMSO, moderately soluble in chloroform and dichloromethane | IC50 [2]: 49 µM and 49.1 µM | IC50 (A375 human skin melanoma): 9.7 ± 1.1 µM | IC50 [3]: 7.7 ± 0.8 µM | IC50 [4]: 64.7 ± 0.7 µM | IC50 [5]: 44.2 ± 1.6 µM | IC50 (B16 mouse melanoma): 21.1 ± 2 µM | IC50 [6]: 68.2 ± 1.3 µM | IC50 (U251 human glioma): > 100 µM | IC50 [7]: 22.9 ± 1.4 µM | concentration of self‐assemblies [8]: 10^6–10^7 particles mL^−1
